Entries after “also recorded” stand apart in the source; their conditions may differ. Values belong to the molecule of their own block, whether it stands above or below them.
Tests used:
STING [1] = molecular target: T1, STING (Mus musculus, UniProt Q3TBT3); assay: Cytokine secretion (ELISA) from DMXAA-activated splenocytes; format: cell-based, C57BL/6 mice; parameters: Splenocytes were recovered from C57BL/6 WT female mice; endogenous in cells; host or cells: primary splenocytes of C57BL/6 mice; conditions: for STING inhibition (ranking): at 5,000 nM, resting splenocytes; for Mode of action on STING (overall): summary over various cell types, DMXAA stimulation
T1 sequence (Q3TBT3 1-378): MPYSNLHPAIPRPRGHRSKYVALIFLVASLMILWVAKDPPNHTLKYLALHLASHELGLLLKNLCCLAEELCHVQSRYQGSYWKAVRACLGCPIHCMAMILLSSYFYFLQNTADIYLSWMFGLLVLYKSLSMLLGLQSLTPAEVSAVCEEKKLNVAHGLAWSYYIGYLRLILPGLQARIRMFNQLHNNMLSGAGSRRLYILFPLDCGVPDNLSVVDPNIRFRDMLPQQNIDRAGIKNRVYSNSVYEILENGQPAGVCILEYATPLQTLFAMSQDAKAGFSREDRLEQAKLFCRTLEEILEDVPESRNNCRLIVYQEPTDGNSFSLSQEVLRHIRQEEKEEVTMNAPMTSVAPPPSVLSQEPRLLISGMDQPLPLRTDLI
Protocol: FIGS. 1A-1B include bar graphs showing that Cluster 1 and 9 inhibit tumor necrosis factor alpha (TNFα) while only cluster 1 promotes IL-10 secretion from resting splenocytes activated by the selective STING agonist DMXAA. Splenocytes were recovered from C57BL/6 WT or STING^−/− female mice and were incubated (1×10^6 cells in 0.5 mL of culture media) overnight with a premade mixture of the individual compounds in each cluster (5-500 nM) or vehicle, and DMXAA (10 μM). Next, culture supernatants were collected and TNFα(1A) or IL-10 (1B) levels were determined by standard enzyme-linked immunosorbent assay ELISA (Biolegend).
(§1) FIGS. 2A-2D include graphs showing that compounds 5.9 and 7.9 inhibit TNFα and IL-10 secretion from DMXAA-activated splenocytes. Splenocytes were recovered from C57BL/6 WT female mice and incubated (1×10^6 cells in 0.5 mL of culture media) overnight with the individual compounds from cluster 9 (50-5,000 nM) or vehicle and DMXAA (5-10 μM; 2A-2B) or at 5,000 nM without DMXAA (2C-2D). Next, culture supernatants were collected and TNFα (2A, and 2C) or IL-10 (2B, and 2D) levels were determined by standard ELISA. In 2A-2B, black horizontal line indicates secretion level from vehicle-treated cells.
FIGS. 3A-3H include graphs and an image showing that compounds 2.1, 4.1, and 6.1 inhibit TNFα but promote IL-10 and IFN-beta secretion from DMXAA-activated splenocytes. Splenocytes were recovered from C57BL/6 WT female mice and incubated (1×10^6 cells in 0.5 mL of culture media) overnight with the individual compounds from cluster 1 (50-5,000 nM) or vehicle and DMXAA (10 μM; 3A, 3C, and 3E) or at 5,000 nM without DMXAA (3B, 3D, and 3F). Next, culture supernatants were collected and TNFα (3A-3B), IL-10 (3C-3D), or IFN-beta (3E-3F) levels were determined by standard ELISA. In 3A, 3C, and 3E, black horizontal line indicates secretion level from vehicle-treated cells. (3G-3H) Biased STING agonists (BiSTs) enhance DMXAA-induced STING signaling. Splenocytes were treated with 25 μg/ml DMXAA and 50 nM of compound 2.1 for 1-4 hr (3G). Then, the cells were analyzed by immunoblotting for phosphorylated STING, TBK-1, IRF3, and NF-kB, or their unphosphorylated controls, or actin as a loading control. Densitometry analysis for phosphorylated STING (p-STING) and STING proteins (3H) is also shown. Results are representative (3G) or mean±SEM (3H) from 3 repeats. One-way ANOVA, and Tukey HSD test *P<0.05.
(§2) Splenocytes were isolated from the spleens of unchallenged C57BL/6 WT or STING-KO mice by meshing against a grid. Peritoneal macrophages were isolated from mice undergoing peritonitis for 66 hr by washing with 5 ml PBS. The cellular exudate was stained with phycoerythrin (PE)-conjugated anti-F4/80 antibodies (bioLegend, CA, USA) and macrophages were isolated using magnetic beads (STEMCELL Technologies Inc, Vancouver, Canada). Isolated splenocytes or macrophages (0.5-1×10^6 cells per well) were incubated with 50-5,000 nM of individual substances or pooled clusters thereof. Then, the cells were treated with vehicle or 5-10 μM DMXAA (Cayman Chemical, MI, USA) to activate STING. After 24 hr, culture supernatants were collected and evaluated for levels of: TNFα, IFN-β and/or IL-10 using, standard ELISA (BioLegend, CA, USA).
To test which cluster(s) included compounds that modulate STING-mediated cytokine production, wild-type (WT) or STING knockout (−/−) splenocytes were incubated with the selective murine STING agonist DMXAA alone or with 5-500 nM of the pooled individual compounds in each cluster as indicated.
Next, the individual compounds in clusters 1 and 9 were tested at 50-5,000 nM. The first experiment was performed in resting splenocytes as detailed above.

[2] = system: LPS-activated splenocytes; assay: Cytokine secretion (ELISA) from LPS-activated splenocytes; format: cell-based, C57BL/6 mice; conditions: for LPS-induced cytokine secretion / IFN-beta secretion / IL-10 secretion / TNFα secretion: 5,000 nM + LPS 1 μg/ml; for IFN-beta secretion / IL-10 secretion / TNFα secretion: overnight
Protocol: FIGS. 4A-4C include vertical bar graphs showing that compounds 5.9 and 7.9 inhibit TNFα but promote IL-10 and IFN-beta secretion from lipopolysaccharides (LPS)-activated splenocytes. Splenocytes were recovered from C57BL/6 WT female mice and incubated (1×10^6 cells in 0.5 mL of culture media) overnight with the individual compounds from cluster 9 (5,000 nM) or vehicle and LPS (1 μg/ml). Next, culture supernatants were collected and TNFα (4A), IL-10 (4B), or IFN-beta (4C) levels were determined by standard ELISA.
STING was previously shown to be essential for LPS-induced IRF3 activation and IFN-β production. Therefore, further examination of whether the putative STING antagonists affect LPS-induced cytokine production was carried out.

STING [3] = molecular target: T1, STING; assay: Cytokine secretion (ELISA) from DMXAA-activated resolution phase macrophages (zymosan A peritonitis); format: cell-based, mice; parameters: Mice were injected with zymosan A (1 mg/mouse), and peritoneal cells thereof were recovered after 66 hrs; endogenous in cells; host or cells: F4/80+ peritoneal exudate macrophages from mice with zymosan A peritonitis; conditions: for IL-10 secretion / TNFα secretion: individual compounds 50-5,000 nM + DMXAA 5-10 μM; for Mode of action in resolution phase macrophages: summary heading; for TNFα induced by DMXAA: at 5000 nM
Protocol: Mice were injected with zymosan A (1 mg/mouse), and peritoneal cells thereof were recovered after 66 hrs. Exudate macrophages were isolated and incubated (1×10^6 cells in 0.5 mL of culture media) overnight with a premade mixture of the individual compounds in clusters 1 and 9 (5,000 nM; 5A and 5C), or the individual compounds (500-5,000 nM), or vehicle and DMXAA (5-10 μM). Next, culture supernatants were collected and TNFα (5A-5B) or IL-10 (5C-5D) levels were determined by standard ELISA (Biolegend).
as §2
To use a more physiological setting, macrophages were isolated from zymosan A-induced peritonitis and treated with the compounds alone (5,000 nM) or compounds (50-5,000 nM) with DMXAA, or DMXAA alone.

STING [4] = molecular target: T1, STING; assay: Cytokine secretion (ELISA) from splenocytes without DMXAA; format: cell-based, C57BL/6 mice; parameters: Splenocytes were recovered from C57BL/6 WT female mice; endogenous in cells; host or cells: primary splenocytes of C57BL/6 mice; conditions: 5,000 nM
Protocol: as §1
FIGS. 3A-3H include graphs and an image showing that compounds 2.1, 4.1, and 6.1 inhibit TNFα but promote IL-10 and IFN-beta secretion from DMXAA-activated splenocytes. […] Next, culture supernatants were collected and TNFα (3A-3B), IL-10 (3C-3D), or IFN-beta (3E-3F) levels were determined by standard ELISA. […] Then, the cells were analyzed by immunoblotting for phosphorylated STING, TBK-1, IRF3, and NF-kB, or their unphosphorylated controls, or actin as a loading control. […]
Splenocytes were isolated from the spleens of unchallenged C57BL/6 WT or STING-KO mice by meshing against a grid. […] After 24 hr, culture supernatants were collected and evaluated for levels of: TNFα, IFN-β and/or IL-10 using, standard ELISA (BioLegend, CA, USA). […]

[5] = individual compounds 50-5,000 nM + DMXAA 5-10 μM, overnight

SMILES: COc1ccccc1CCN1CCCC(CN(C)C(=O)Cc2cn(C)c3ccccc23)C1 (stereo not shown) [Compound 4.9]
STING inhibition (ranking) (STING [1]): Best STING Inhibitors
TNFα secretion (STING [1]; [5]): doing so at lower concentrations

SMILES: O=C(CCc1c[nH]c2ccccc12)N1CCOc2ccc(CN3CCN(c4ccccn4)CC3)cc2C1 [Compound 7.9, 4-[3-(1H-indol-3-yl)propanoyl]-7-{[4-(2-pyridinyl)-1-piperazinyl]methyl}-2,3,4,5-tetrahydro-1,4-benzoxazepine]
LPS-induced cytokine secretion [2]: much milder effects
IFN-beta secretion [2]: promote
IL-10 secretion [2]: promote
TNFα secretion [2]: inhibit
IL-10 secretion (STING [3]): best inhibitor; also recorded: inhibits
TNFα secretion (STING [3]): best inhibitor; also recorded: inhibits
Mode of action in resolution phase macrophages (STING [3]): Very Efficient STING Inhibitor
IL-10 secretion (STING [1]; [5]): inhibit
TNFα secretion (STING [1]; [5]): inhibit
Mode of action on STING (overall) (STING [1]): very efficient STING inhibitors

SMILES: c1ccc(-n2cccc2CN(Cc2cccnc2)Cc2ccc3c(c2)OCO3)nc1 [Compound 4.1, (1,3-benzodioxol-5-ylmethyl)(pyridin-3-ylmethyl)[(1-pyridin-2-yl-1H-pyrrol-2-yl)methyl]amine]
IL-10 induced by DMXAA (STING [3]; at 500 nM): enhanced
IL-10 induced by DMXAA (STING [3]; at 5,000 nM): not
IL-10 secretion (STING [3]): selective inducer
Mode of action in resolution phase macrophages (STING [3]): Biased Antagonist for TNFα
IFN-beta secretion (STING [1]; individual compounds 50-5,000 nM + DMXAA 10 μM, overnight): promote
IL-10 secretion (STING [1]; [5]): induced IL-10 at all concentrations; also recorded: promote
TNFα secretion (STING [1]; [5]): inhibit
IL-10 secretion (STING [1]; individual compounds at 5,000 nM + DMXAA): induces
Mode of action on STING (overall) (STING [1]): biased agonists; also recorded: most efficient biased agonist
IL-10 secretion (STING [4]; without DMXAA): only compound that induced IL-10; also recorded: induces

SMILES: CCOC(=O)N1CCC(NCc2cc3ccc(Cl)cc3n(CCOc3ccccc3)c2=O)CC1 [Compound 6.9, ethyl 4-({[7-chloro-2-oxo-1-(2-phenoxyethyl)-1,2-dihydro-3-quinolinyl]methyl}amino)-1-piperidinecarboxylate]
LPS-induced cytokine secretion [2]: much milder effects

SMILES: Cc1ccc2c(-c3cc4c(n(CC5CC5)c3=O)CCN(C(=O)C3=NN(C)C(=O)CC3)C4)cccc2n1 [Compound 5.9, 1-(cyclopropylmethyl)-6-[(1-methyl-6-oxo-1,4,5,6-tetrahydro-3-pyridazinyl)carbonyl]-3-(2-methyl-5-quinolinyl)-5,6,7,8-tetrahydro-1,6-naphthyridin-2(1H)-one]
IFN-beta secretion [2]: enhances; also recorded: significant upregulation; also recorded: promote
IL-10 secretion [2]: enhances; also recorded: significant upregulation; also recorded: promote
TNFα secretion [2]: not and reducing and inhibiting and inhibit
Mode of action in LPS-stimulated splenocytes ([2]; summary statement): biased agonist
IL-10 induced by DMXAA (STING [3]; at 5,000 nM): enhanced
TNFα induced by DMXAA (STING [3]): enhanced
STING inhibition (ranking) (STING [1]): Best STING Inhibitors
IL-10 secretion (STING [1]; [5]): inhibit
TNFα secretion (STING [1]; [5]): doing so at lower concentrations; also recorded: best inhibitor; also recorded: inhibit
Mode of action on STING (overall) (STING [1]): very efficient STING inhibitors
TNFα secretion (STING [4]; absence of DMXAA stimulation): inhibited

Continued, in another order:

IL-10 induced by DMXAA (STING [3]; at 5,000 nM): enhanced
TNFα induced by DMXAA (STING [3]): enhanced
STING inhibition (ranking) (STING [1]): Best STING Inhibitors
Mode of action on STING (overall) (STING [1]): biased agonists
SMILES: Cc1ccc(C(=O)Nc2cnn(-c3ccc(C(=O)N4CCC(c5ccc(F)cc5)C4)cc3)c2)c(C)c1 (stereo not shown) [Compound 6.1, N-[1-(4-{[3-(4-fluorophenyl)-1-pyrrolidinyl]carbonyl}phenyl)-1H-pyrazol-4-yl]-2,4-dimethylbenzamide]
TNFα secretion (STING [1]; [5]): doing so at lower concentrations; also recorded: inhibit

TNFα secretion (STING [3]): enhanced TNFα only
SMILES: COCC(=O)N(C)C(Cc1ccc(F)cc1)C1CCN(C(=O)c2ccc(-c3ccccc3)cc2)CC1 (stereo not shown) [Compound 3.1, N-[1-[1-(4-biphenylylcarbonyl)-4-piperidinyl]-2-(4-fluorophenyl)ethyl]-2-methoxy-N-methylacetamide]

Source: patent publication US20250302798A1, “STING INHIBITORS AND USE THEREOF” (CARMEL HAIFA UNIVERSITY ECONOMIC CORPORATION LTD., priority 2022, published 2025)
